Reference: patent US6929685B2, “Alkylamine derivatives as antifouling agents” (Bayer Atiengesellschaft, priority 2001, dated 2005)

Legend:
[1] = system: cyprid larvae of the barnacle Balanus amphitrite; test: Settlement assay, cyprid larvae of the barnacle; type: in vivo; conditions: Balanus amphitrite cyprids, seawater, 27° C., Spearman-Karber
Procedure: The rate of settlement of laboratory reared cyprid larvae of the barnacle Balanus amphitrite was determined for testing the activity of candidate antifouling compounds. Settlement Assay Tests are carried out in four replicates in sterile polystyrene multi well plates. Between 25 and 40 cyprid larvae are injected in the dishes containing either 2 ml of test solution (see below), solvent control or a positive control (dichloro-n-octyl-isothiazolinone). Dishes are incubated for 24 h at a temperature of 27° C. ±2. After incubation the cyprids are screened for signs of toxicity. The test is terminated by addition of a drop of 20% formaldehyde and the numbers of settled and non-settled larvae are counted. Settlement is evaluated as follows: 1) non settled: not attached free-swimming cyprids, 2) settled cyprids: attached, but not metamorphosed cyprids, 3) barnacles: attached juvenile barnacles. Categories 2 and 3 are considered to be settled. Percentage settlement in test solution is compared with controls. Estimates of the median effect concentration (EC50) after […] are calculated using the Spearman-Karber method. All seawater used is of natural origin and filtered unto 0.2 μm. Stock solutions of test compounds are prepared by dissolving an amount of test substance in a suitable solvent and subsequent addition of seawater. […]

[2] = system: hard fouling; test: Raft panel static immersion test of antifouling paints: hard fouling; design: key: G: Not present; Some light slime; F: Overall covered; conditions: Dutch harbor, sea water
Text: (§1) The prepared paints have been evaluated on can stability, adhesion and film defects. The antifouling performance has been tested by application of the paints on raft panels. At first the steel panels had been protected with a standard anticorrosive system for marine environments (300 μm in dft). The to be tested antifouling paint had been applied in 2 layers with a total dry film thickness between 200 and 300 μm. Finally the panels were subjected to a static immersion test on rafts at sea harbors in Holland. The paints were inspected for the presence of fouling (% of area covered with fouling organisms) and of film defects every two months. The tested paint formulations are represented in Table 1.
(§2) Further explanations to Table 1: • 1. Model coatings of type 1 (MC-1A/B/C) are for the evaluation of the algicidal properties of the claimed structures at three different representative weight-% next to 35% cuprous oxide. Good performing references are model coating MC-2 and MC-3 [35% cuprous oxide+3% Seanine (MC-2) or 35% cuprous oxide+3% Irgarol (MC-3)]. Base level references are “cuprous oxide only” formulations [cuprous oxide only (35% (MC4) and 50% level (MC-5)]. • 2. Model coatings of type 6 and 7 are for the evaluation of the activity of the claimed structures against “hard fouling” in combination with two different types of algicides: claimed structure (1/2/4%; MC-6-A/B/C)+3% Seanine or claimed structure (1/2/4%; MC-7-A/B/C)+3% Irgarol). Base level references are “algicide only” formulations with 3% Seanine (MC-8) or 3% Irgarol (MC-9).
(§3) 3. Model coatings of type 10 (MC-10A/B) evaluate the total spectrum of biocidal activity by using the claimed structure as only biocide at 2 levels (4 and 8 w %). Good performing references are “cuprous oxide only” formulations [cuprous oxide 35% (MC-4) and 50% (MC-5)]. As blank serves model coating 11 (MC-1 1) containing no biocide at all.
(§4) The claimed structures were tested at several levels of dosage with and without an algicide as co-biocide. The following formulations were used for comparison: formulations with cuprous oxide, formulations with cuprous oxide and commercial co-biocides, a blank and two formulations that only contained the co-biocide and finally a commercial tributyltin-releasing self polishing system.
(§5) An even better protection can be obtained by combining claimed structures with co-biocides like the algicides that are commonly used for antifoulings.

[3] = system: slime; test: Raft panel static immersion test of antifouling paints: slime; design: key: G: Not present; Some light slime; F: Overall covered; conditions: Dutch harbor, sea water
Text: as §1, §2, §3, §4, §5

[4] = system: algae; test: Raft panel static immersion test of antifouling paints: algae; design: key: G: Not present; Some light slime; F: Overall covered; conditions: Dutch harbor, sea water
Text: as §1, §2, §3, §4, §5

[5] = system: fouling organisms; test: Raft panel static immersion test of antifouling paints: overall; design: key: good (G); satisfactory (S); failure (F); conditions: Dutch harbor, sea water
Text: as §1, §2, §3, §4, §5

[6] = model coating 1A: 35% Cu2O + 1% of compound
[7] = model coating 1B: 35% Cu2O + 2% of compound
[8] = model coating 1C: 35% Cu2O + 3% of compound
[9] = model coating 6C: 4% of compound + 3% Seanine
[10] = model coating 10B: 8% of compound as only biocide
[11] = model coating 6A: 1% of compound + 3% Seanine
[12] = model coating 6B: 2% of compound + 3% Seanine
[13] = model coating 7A: 1% of compound + 3% Irgarol
[14] = model coating 7B: 2% of compound + 3% Irgarol
[15] = model coating 7C: 4% of compound + 3% Irgarol
[16] = model coating 10A: 4% of compound as only biocide

In the case of `C=CCCCCCCCCCNC=O` [Compound 8, N-formyl-1-aminoundec-10-ene], the “EC50 for settlement inhibition in ppm” value [1] is reported as 0.60 ppm, the “Performance (1 yr immersed) Hard fouling” value [2, 6] is reported as “G” and the “Performance (1 yr immersed) Hard fouling” value [2, 7] is reported as “G”. For the same molecule, the “Performance (1 yr immersed) Hard fouling” value [2, 8] was “G”, the “Performance (1 yr immersed) Hard fouling” value [2, 9] was “G” and the “Performance (1 yr immersed) Hard fouling” value [2, 10] was “G”. For the same molecule, the “Performance (1 yr immersed) Slime” value [3, 6] was “S”, the “Performance (1 yr immersed) Slime” value [3, 7] was “S” and the “Performance (1 yr immersed) Slime” value [3, 8] was “G”. For the same molecule, the “Performance (1 yr immersed) Slime” value [3, 11] was “S”, the “Performance (1 yr immersed) Slime” value [3, 12] was “S” and the “Performance (1 yr immersed) Slime” value [3, 9] was “G”. For the same molecule, the “Performance (1 yr immersed) Slime” value [3, 13] was “S”, the “Performance (1 yr immersed) Slime” value [3, 14] was “S” and the “Performance (1 yr immersed) Slime” value [3, 15] was “S”. For the same molecule, the “Performance (1 yr immersed) Slime” value [3, 16] was “F”, the “Performance (1 yr immersed) Slime” value [3, 10] was “S” and the “Performance (1 yr immersed) Algae” value [4, 7] was “G”. For the same molecule, the “Performance (1 yr immersed) Algae” value [4, 8] was “G”, the “Performance (1 yr immersed) Algae” value [4, 11] was “G” and the “Performance (1 yr immersed) Algae” value [4, 12] was “G”. For the same molecule, the “Performance (1 yr immersed) Algae” value [4, 9] was “G”, the “Performance (1 yr immersed) Algae” value [4, 13] was “G” and the “Performance (1 yr immersed) Algae” value [4, 14] was “G”. For the same molecule, the “Performance (1 yr immersed) Algae” value [4, 15] was “G”, the “Performance (1 yr immersed) Overall” value [5, 6] was “S” and the “Performance (1 yr immersed) Overall” value [5, 7] was “S”. For the same molecule, the “Performance (1 yr immersed) Overall” value [5, 8] was “G”, the “Performance (1 yr immersed) Overall” value [5, 11] was “F” and the “Performance (1 yr immersed) Overall” value [5, 12] was “S”. For the same molecule, the “Performance (1 yr immersed) Overall” value [5, 9] was “G”, the “Performance (1 yr immersed) Overall” value [5, 13] was “F” and the “Performance (1 yr immersed) Overall” value [5, 14] was “S”. For the same molecule, the “Performance (1 yr immersed) Overall” value [5, 15] was “S”, the “Performance (1 yr immersed) Overall” value [5, 16] was “F” and the “Performance (1 yr immersed) Overall” value [5, 10] was “S”.
